Results reported in US20080287534A1, “Method for Controlling Insect Pests on Plants” (priority 2005, published 2008).

Key:
Type in all cases: in vivo
[1] = tested on: beet armyworm (Spodoptera exigua); test: Test A: control of beet armyworm by soil application to tomato plants, excised-leaf feeding, visual mortality
Procedure: For evaluating control of beet armyworm (Spodoptera exigua), methomyl was in liquid formulation as Lannate® LV (29% of active ingredient). Oxamyl was in liquid formulation as Vydate® L (24% active ingredient).
The test compounds were dissolved in water. Enough water was added to make 29 ppm of active ingredient for Lannate® LV and 500 ppm of active ingredient for Vydate® L. To obtain the desired mixture concentrations of each compound, twice the desired concentration of each of the two mixture partner compounds were mixed together in equal volumes.
(§1) Diluted solutions (50 mL) of the test compounds were applied to the soil surface of five-week-old tomato plants at the desired concentration, corresponding to 47 g a.i./ha (g active ingredient/hectare) of methomyl and 807 g a.i./ha of oxamyl. The plants were maintained in a greenhouse for 24 h. From each plant, leaves were excised, cut into pieces, and placed singly into 5.5 cm-by-3.5 cm cell of a sixteen-cell plastic tray. Each cell contained solidified agar (3 to 5 mL) to prevent desiccation. A single 4-day old insect larva was placed in each cell, with one tray per treatment. Trays were held in a growth chamber at 25° C., 16-hour light/8-hour dark photoperiod, 60% relative humidity for 4 days.

[2] = tested on: cabbage looper (Trichoplusia ni); test: Test B: control of cabbage looper by soil application to cabbage plants, excised-leaf feeding, visual mortality; settings: 96 h, read-out: % Mortality (Observed)
Procedure: (§2) For evaluating control of cabbage looper (Trichoplusia ni) and tobacco budworm (Heliothis virescens), methomyl was in liquid formulation as Lannate® LV (29% of active ingredient). Oxamyl was in liquid formulation as Vydate® L (24% of active ingredient).
(§3) The test compounds were dissolved in water. Enough water was added to make 57 ppm of the Lannate® LV and 250 and 500 ppm of active ingredient for Vydate® L. To obtain the desired mixture concentrations of each compound, twice the desired concentration of each of the two mixture compounds were mixed together in equal volumes.
as §1, with “For the cabbage looper trial, diluted solutions (50 mL) of the test compounds were applied to the soil surface of five-week-old cabbage plants at the desired concentrations, corresponding to 135 g a.i./ha (g active ingredient/hectare) of methomyl and 404 and 807 g a.i./ha of oxamyl. For the tobacco budworm trial, diluted” for “Diluted”, “concentrations,” for “concentration,”, “92” for “47”, “methomyl and 404” for “methomyl”, “two trays” for “one tray”

[3] = tested on: tobacco budworm (Heliothis virescens); test: Test B: control of tobacco budworm by soil application to tomato plants, excised-leaf feeding, visual mortality; settings: 96 h, read-out: % Mortality (Observed)
Procedure: as §2, §3
as §1, with “For the cabbage looper trial, diluted solutions (50 mL) of the test compounds were applied to the soil surface of five-week-old cabbage plants at the desired concentrations, corresponding to 135 g a.i./ha (g active ingredient/hectare) of methomyl and 404 and 807 g a.i./ha of oxamyl. For the tobacco budworm trial, diluted” for “Diluted”, “concentrations,” for “concentration,”, “92” for “47”, “methomyl and 404” for “methomyl”, “two trays” for “one tray”

SMILES | mortality at 47 g/ha ([1]; Spodoptera exigua, methomyl 47 g a.i./ha, soil application, five-week-old tomato plants, evaluated at 96 h, read-out: % mortality (observed)) [%] | mortality at 135 g/ha ([2]; methomyl 135 g a.i./ha, soil application, five-week-old cabbage plants) [%] | mortality at 92 g/ha ([3]; methomyl 92 g a.i./ha, soil application, five-week-old tomato plants) [%] | mortality at 807 g/ha ([1]; Spodoptera exigua, soil, 96 h, read-out: % mortality (observed)) [%] | % mortality (observed) ([1]; oxamyl 807 g a.i./ha, soil application, five-week-old tomato plants, evaluated at 96 h) | mortality at 404 g/ha ([2]; soil) [%] | mortality at 807 g/ha ([2]; soil) [%] | mortality at 404 g/ha ([3]; soil) [%] | mortality at 807 g/ha ([3]; soil) [%]
CNC(=O)ON=C(C)SC [Methomyl, methyl N-[[(methylamino)carbonyl]oxy]-ethanimidothioate] | 44 | 75 | 41 |  |  |  |  |  | 
CNC(=O)ON=C(SC)C(=O)N(C)C [Oxamyl, methyl 2-(dimethylamino)-N-[[(methylamino)-carbonyl]oxy]-2-oxoethanimidothioate] |  |  |  | 0 | no mortality | 16 | 38 | 6 | 13
